From patent publication US12435059B2, “AMP-activated protein kinase inhibitors and methods of making and using the same” (The Regents of the University of Colorado, priority 2019, dated 2025)
Where two headings read alike, the source gives them in different places.

Columns and labels:
Test in all cases: biochemical
Format in all cases: binding
468 kinases [1] = biological target: 468 kinases (Homo sapiens, UniProt Q9UM73, L1196M); details: ALK(L1196M); read-out: % Inhibition @ 100 nM
468 kinases [2] = biological target: 468 kinases (Homo sapiens, UniProt Q9Y3S1); details: WNK2; read-out: % Inhibition @ 100 nM
468 kinases [3] = biological target: 468 kinases (Homo sapiens, UniProt P78368); details: CSNK1G2; read-out: % Inhibition @ 100 nM
468 kinases [4] = biological target: 468 kinases (Homo sapiens, UniProt Q8TD19); details: NEK9; read-out: % Inhibition @ 100 nM
468 kinases [5] = biological target: 468 kinases (Homo sapiens, UniProt O43318); details: TAK1; read-out: % Inhibition @ 100 nM
468 kinases [6] = biological target: 468 kinases (Homo sapiens, UniProt P42685); details: FRK; read-out: % Inhibition @ 100 nM
468 kinases [7] = biological target: 468 kinases (Homo sapiens, UniProt P11309); details: PIM1; read-out: % Inhibition @ 100 nM
468 kinases [8] = biological target: 468 kinases (Homo sapiens, UniProt Q9BQI3); details: EIF2AK1; read-out: % Inhibition @ 100 nM
468 kinases [9] = biological target: 468 kinases (Homo sapiens, UniProt P07949, V804M); details: RET(V804M); read-out: % Inhibition @ 100 nM
468 kinases [10] = biological target: 468 kinases (Homo sapiens, UniProt Q04912); details: MST1R; read-out: % Inhibition @ 100 nM
468 kinases [11] = biological target: 468 kinases (Homo sapiens, UniProt O14920); details: IKK-beta; read-out: % Inhibition @ 100 nM
468 kinases [12] = biological target: 468 kinases (Homo sapiens, UniProt Q16566); details: CAMK4; read-out: % Inhibition @ 100 nM
468 kinases [13] = biological target: 468 kinases (Homo sapiens, UniProt Q8IWQ3); details: BRSK2; read-out: % Inhibition @ 100 nM
468 kinases [14] = biological target: 468 kinases (Homo sapiens, UniProt P50750); details: CDK9; read-out: % Inhibition @ 100 nM
468 kinases [15] = biological target: 468 kinases (Homo sapiens, UniProt Q15418); details: read-out: % Inhibition @ 100 nM
468 kinases [16] = biological target: 468 kinases (Plasmodium falciparum, UniProt P61075); details: PFPK5 (P.falciparum); read-out: % Inhibition @ 100 nM
468 kinases [17] = biological target: 468 kinases (Homo sapiens, UniProt P04626); details: ERBB2; read-out: % Inhibition @ 100 nM
468 kinases [18] = biological target: 468 kinases (Homo sapiens, UniProt Q13705); details: ACVR2B; read-out: % Inhibition @ 100 nM
468 kinases [19] = biological target: 468 kinases (Homo sapiens, UniProt Q9UKI8); details: TLK1; read-out: % Inhibition @ 100 nM
468 kinases [20] = biological target: 468 kinases (Homo sapiens, UniProt P07947); details: YES; read-out: % Inhibition @ 100 nM
468 kinases [21] = biological target: 468 kinases (Homo sapiens, UniProt P53350); details: PLK1; read-out: % Inhibition @ 100 nM
468 kinases [22] = biological target: 468 kinases (Homo sapiens, UniProt Q9BZL6); details: PRKD2; read-out: % Inhibition @ 100 nM
468 kinases [23] = biological target: 468 kinases (Homo sapiens, UniProt P00519, T315I); details: read-out: % Inhibition @ 100 nM
468 kinases [24] = biological target: 468 kinases (Homo sapiens, UniProt Q00526); details: CDK3; read-out: % Inhibition @ 100 nM
468 kinases [25] = biological target: 468 kinases (Homo sapiens, UniProt Q02779); details: MLK2; read-out: % Inhibition @ 100 nM
468 kinases [26] = biological target: 468 kinases (Homo sapiens, UniProt P10721, V559D); details: KIT(V559D); read-out: % Inhibition @ 100 nM
468 kinases [27] = biological target: 468 kinases (Homo sapiens, UniProt Q14012); details: CAMK1; read-out: % Inhibition @ 100 nM
468 kinases [28] = biological target: 468 kinases (Homo sapiens, UniProt O75676); details: read-out: % Inhibition @ 100 nM
468 kinases [29] = biological target: 468 kinases (Homo sapiens, UniProt P14616); details: INSRR; read-out: % Inhibition @ 100 nM
468 kinases [30] = biological target: 468 kinases (Homo sapiens, UniProt P53671); details: LIMK2; read-out: % Inhibition @ 100 nM
468 kinases [31] = biological target: 468 kinases (Homo sapiens, UniProt Q9NYL2); details: ZAK; read-out: % Inhibition @ 100 nM
468 kinases [32] = biological target: 468 kinases (Homo sapiens, UniProt Q9UQB9); details: AURKC; read-out: % Inhibition @ 100 nM

## CCN(CC)CCNC(=O)c1c(C)[nH]c(/C=C2\C(=O)Nc3ccc(CCO)cc32)c1C [Compound No. 10, (Z)—N-(2-(Diethylamino)ethyl)-5-((5-(2-hydroxyethyl)-2-oxoindolin-3-ylidene)methyl)-2,4-dimethyl-1H-pyrrole-3-carboxamide]
468 kinases [1]
  inhibition at 0.1 µM: 52%
468 kinases [2]
  inhibition at 0.1 µM: 0%
468 kinases [3]
  inhibition at 0.1 µM: 0%
468 kinases [4]
  inhibition at 0.1 µM: 0%
468 kinases [5]
  inhibition at 0.1 µM: 59%
468 kinases [6]
  inhibition at 0.1 µM: 0%
468 kinases [7]
  inhibition at 0.1 µM: 0%
468 kinases [8]
  inhibition at 0.1 µM: 0%
468 kinases [9]
  inhibition at 0.1 µM: 86%
468 kinases [10]
  inhibition at 0.1 µM: 5%
468 kinases [11]
  inhibition at 0.1 µM: 8%
468 kinases [12]
  inhibition at 0.1 µM: 0%
468 kinases [13]
  inhibition at 0.1 µM: 32%
468 kinases [14]
  inhibition at 0.1 µM: 0%
468 kinases [15]; RSK1(Kin.Dom.1-N-terminal)
  inhibition at 0.1 µM: 4%
468 kinases [15]; RSK1(Kin.Dom.2-C-terminal)
  inhibition at 0.1 µM: 0%
468 kinases [16]
  inhibition at 0.1 µM: 0%
468 kinases [17]
  inhibition at 0.1 µM: 0%
468 kinases [18]
  inhibition at 0.1 µM: 1%
468 kinases [19]
  inhibition at 0.1 µM: 2%
468 kinases [20]
  inhibition at 0.1 µM: 13%
468 kinases [21]
  inhibition at 0.1 µM: 0%
468 kinases [22]
  inhibition at 0.1 µM: 0%
468 kinases [23]; ABL1 (T3151)-nonphosphorylated
  inhibition at 0.1 µM: 56%
468 kinases [23]; ABL1 (T3151)-phosphorylated
  inhibition at 0.1 µM: 91.8%
468 kinases [24]
  inhibition at 0.1 µM: 0%
468 kinases [25]
  inhibition at 0.1 µM: 18%
468 kinases [26]
  inhibition at 0.1 µM: 88%
468 kinases [27]
  inhibition at 0.1 µM: 0%
468 kinases [28]; RPS6KA4(Kin.Dom.1-N-terminal)
  inhibition at 0.1 µM: 8%
468 kinases [28]; RPS6KA4(Kin.Dom.2-C-terminal)
  inhibition at 0.1 µM: 0%
468 kinases [29]
  inhibition at 0.1 µM: 1%
468 kinases [30]
  inhibition at 0.1 µM: 0%
468 kinases [31]
  inhibition at 0.1 µM: 10%
468 kinases [32]
  inhibition at 0.1 µM: 40%

## CCN(CC)CCNC(=O)c1c(C)[nH]c(/C=C2\C(=O)Nc3ccc(CCC(N)=O)cc32)c1C [Compound No. 16, (Z)-5-((5-(3-Amino-3-oxopropyl)-2-oxoindolin-3-ylidene)methyl)-N-(2-(diethylamino)ethyl)-2,4-dimethyl-1H-pyrrole-3-carboxamide]
468 kinases [1]
  inhibition at 0.1 µM: 31%
468 kinases [2]
  inhibition at 0.1 µM: 13%
468 kinases [3]
  inhibition at 0.1 µM: 3%
468 kinases [4]
  inhibition at 0.1 µM: 0%
468 kinases [5]
  inhibition at 0.1 µM: 61%
468 kinases [6]
  inhibition at 0.1 µM: 38%
468 kinases [7]
  inhibition at 0.1 µM: 0%
468 kinases [8]
  inhibition at 0.1 µM: 42%
468 kinases [9]
  inhibition at 0.1 µM: 99.3%
468 kinases [10]
  inhibition at 0.1 µM: 0%
468 kinases [11]
  inhibition at 0.1 µM: 19%
468 kinases [12]
  inhibition at 0.1 µM: 0%
468 kinases [13]
  inhibition at 0.1 µM: 25%
468 kinases [14]
  inhibition at 0.1 µM: 6%
468 kinases [15]; RSK1(Kin.Dom.1-N-terminal)
  inhibition at 0.1 µM: 20%
468 kinases [15]; RSK1(Kin.Dom.2-C-terminal)
  inhibition at 0.1 µM: 30%
468 kinases [16]
  inhibition at 0.1 µM: 40%
468 kinases [17]
  inhibition at 0.1 µM: 0%
468 kinases [18]
  inhibition at 0.1 µM: 12%
468 kinases [19]
  inhibition at 0.1 µM: 0%
468 kinases [20]
  inhibition at 0.1 µM: 24%
468 kinases [21]
  inhibition at 0.1 µM: 28%
468 kinases [22]
  inhibition at 0.1 µM: 16%
468 kinases [23]; ABL1 (T3151)-nonphosphorylated
  inhibition at 0.1 µM: 61%
468 kinases [23]; ABL1 (T3151)-phosphorylated
  inhibition at 0.1 µM: 86%
468 kinases [24]
  inhibition at 0.1 µM: 19%
468 kinases [25]
  inhibition at 0.1 µM: 7%
468 kinases [26]
  inhibition at 0.1 µM: 0%
468 kinases [27]
  inhibition at 0.1 µM: 0%
468 kinases [28]; RPS6KA4(Kin.Dom.1-N-terminal)
  inhibition at 0.1 µM: 34%
468 kinases [28]; RPS6KA4(Kin.Dom.2-C-terminal)
  inhibition at 0.1 µM: 35%
468 kinases [29]
  inhibition at 0.1 µM: 10%
468 kinases [30]
  inhibition at 0.1 µM: 17%
468 kinases [31]
  inhibition at 0.1 µM: 10%
468 kinases [32]
  inhibition at 0.1 µM: 98.4%
